PubChem BioAssay AID489040 (Sanford-Burnham Center for Chemical Genomics, 2010)
The source made the active and inactive calls.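 Rule for the calls: active = mean half-maximal activating concentration from the dose-response fit at or below a set limit; inactive = the rest.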

molecular target: CHO-XBP1 luciferase reporter, IRE1-XBP1 UPR activation; assay: XBP1 luciferase reporter activation – CHO-XBP1 cells, luminescence, counter-screen for apoptotic UPR arm activators, dose response (AID 489040);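 note: reporter read after six hours of compound exposure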

Row | SMILES | EC50
1 | COc1ccc(/C=C2\CN(Cc3ccccc3)C/C(=C\c3ccc(OC)c(O)c3)C2=O)cc1O | > 80 µM (inactive)
2 | CN1CSC(=S)N(C)C1 | > 80 µM (inactive)
3 | Cc1nc([N+](=O)[O-])c(Br)n1CC(=O)c1ccc2ccccc2c1 | > 80 µM (inactive)
4 | Cc1ccc(NC(=O)c2ccc(N/N=C/c3cccc(O)c3)c([N+](=O)[O-])c2)cc1 | > 80 µM (inactive)
5 | CCOc1ccc(N2C(=O)/C(=C\c3cccs3)C(=O)NC2=S)cc1 | > 80 µM (inactive)
6 | C/C(=N\NC(=O)C(c1ccccc1)c1ccccc1)c1ccccn1 | > 80 µM (inactive)
7 | CCc1nc(N=Nc2c(O)[nH]c3ccccc23)c2c3c(sc2n1)CCC3 | inactive
8 | COc1cccc(/C=N/Nc2nc(Nc3ccccc3)nc(-n3nc(C)cc3C)n2)c1O | 5.09 µM
9 | Cc1ccc(C)c(C(=O)Cn2ncc(Cl)c(Cl)c2=O)c1 | > 80 µM (inactive)
10 | CCCN1Cc2cccc(C(=O)Nc3ccc(-c4nc5ccccc5[nH]4)cc3)c2C1=O | > 80 µM (inactive)
11 | Cc1cc(C)n(-c2nc(NC(C)(C)C)nc(NC(C)(C)C)n2)n1 | > 80 µM (inactive)
12 | Cc1ccc(C(=O)Cn2c(C(=O)/C=C/c3ccccc3)nc3ccccc32)cc1 | 18.3 µM
13 | O=S(=O)(Nc1cccc2cccnc12)c1ccc(S(=O)(=O)N2CCCC2)cc1 | > 80 µM (inactive)
14 | CC[C@@H](C)[C@H](NC(=O)OC(C)(C)C)c1nnc(S(=O)(=O)Cc2cc(C)ccc2C)o1 | > 80 µM (inactive)
15 | O=C(/C=C/c1ccc(O)c(O)c1)c1ccccc1O | > 80 µM (inactive)
16 | COc1ccc(C(=O)/C=C2/C(=O)Nc3ccccc32)c(OC)c1 | > 80 µM (inactive)
17 | COc1cc2nc(=S)n3[nH]c(CCn4nc(C)cc4C)nc3c2cc1OC | > 80 µM (inactive)
18 | Cc1cc(N2CCN(c3ccc([N+](=O)[O-])c4cccnc34)CC2)c2ccccc2n1 | > 80 µM (inactive)
19 | COc1cc2nc(NC(=O)c3ccc(Cl)cc3)sc(=O)c2cc1OC | > 80 µM (inactive)
20 | COc1ccc(-c2csc3nc(-c4ccc(C)cc4)oc(=O)c23)cc1OC | > 80 µM (inactive)
21 | O=c1[nH]c(=S)n(C2CC2)c(O)c1C=Nc1cccc(C(F)(F)F)c1 | > 80 µM (inactive)
22 | S=C(Nc1ccccc1)c1ccccn1 | > 80 µM (inactive)
23 | C/C(=C\c1ccc(N(C)C)cc1)[N+](=O)[O-] | > 80 µM (inactive)
24 | CC(C)c1ccc(/C=C(\c2nc3ccccc3[nH]2)S(=O)(=O)c2ccccc2)cc1 | > 80 µM (inactive)
25 | Oc1ccc(/C=N/Nc2cc(N3CCCC3)nc(N3CCCC3)n2)cc1O | inactive

Row | SMILES | EC50
26 | O=C1NC(=O)C(=Cc2ccc(-c3ccc(Cl)cc3)o2)C(=O)N1 | > 80 µM (inactive)
27 | O=C(Cn1cc(/C=C\[N+](=O)[O-])c2ccccc21)Nc1ccccc1 | > 80 µM (inactive)
28 | Cc1ccc(/C=C2\CCC3=C2OC(N)=C(C#N)C3c2ccc(C)cc2)cc1 (configuration not stated) | > 80 µM (inactive)
29 | COc1ccc(N2C(=O)/C(=C/C=C/c3ccccc3[N+](=O)[O-])C(=O)NC2=S)cc1 | > 80 µM (inactive)
30 | C/C(=N\NC(=O)COc1ccccc1-c1ccccc1)c1ccccn1 | > 80 µM (inactive)
31 | O=C(/C=C\c1ccccc1OC(=O)c1ccccc1F)c1cc2ccccc2o1 | 13.7 µM
32 | O=C(NC1CCCC1)C(c1ccc(F)cc1)N(Cc1ccc(Cl)cc1)C(=O)CCl (configuration not stated) | > 80 µM (inactive)
33 | Cc1ccc(-c2nc(NC(=O)c3nn(C)cc3[N+](=O)[O-])sc2C)cc1C | > 80 µM (inactive)
34 | COc1ccc(/C=C/c2ccc3cccc(O)c3n2)c(OC)c1OC | > 80 µM (inactive)
35 | COC(=O)c1cc(=O)n(CCc2ccc(OC)c(OC)c2)c(=Nc2ccc(F)c(Cl)c2)s1 | > 80 µM (inactive)
36 | Oc1ccc(-c2nc(-c3ccc(O)c(O)c3)cs2)cc1 | > 80 µM (inactive)
37 | O=C(NCc1ccccc1Br)c1cccc2c1C(=O)c1ccc(-c3ccc(OC(F)(F)F)cc3)cc1S2(=O)=O | 17 µM
38 | COc1ccc2cc(C)c3nnc(SCC(=O)Nc4nc(-c5ccc(F)cc5)cs4)n3c2c1 | inactive
39 | Cc1cc(NC(=O)c2cc(-c3ccccn3)nc3ccc(Br)cc23)no1 | > 80 µM (inactive)
40 | CC(NC(=O)CN(c1cccc(C(F)(F)F)c1)S(=O)(=O)c1ccc(Cl)c([N+](=O)[O-])c1)c1ccccc1 (configuration not stated) | > 80 µM (inactive)
41 | CCOc1cc(/C=N/NC(N)=S)cc(Br)c1OCc1ccccc1C | > 80 µM (inactive)
42 | O=C(CCl)Nc1cc(S(=O)(=O)N2CCCCCC2)ccc1Cl | > 80 µM (inactive)
43 | CC(=O)N(\C=C/C=C/C=C1\Sc2ccccc2C1=O)c1ccccc1 | > 80 µM (inactive)
44 | Cc1cccc(CSc2cccc3cccnc23)c1 | > 80 µM (inactive)
45 | O=C1C(Cl)=C(NC(=O)c2ccccc2)C(=O)C(Cl)=C1NC(=O)c1ccccc1 | > 80 µM (inactive)
46 | Oc1c(C(Nc2ccccn2)c2ccccn2)ccc2cccnc12 (configuration not stated) | > 80 µM (inactive)
47 | Oc1[nH]c2ccccc2c1N=NC(=S)N1CCOCC1 | inactive
48 | COC(=O)c1cc(=O)n(Cc2ccco2)c(=Nc2ccc(F)c(Cl)c2)s1 | > 80 µM (inactive)
49 | Cc1ccc(S(=O)(=O)N(C(=O)c2ccncc2)c2ccc(OC(=O)c3ccncc3)c3ccccc23)c(C)c1 | > 80 µM (inactive)
50 | Cc1sc(NC(=O)c2cc(-c3ccc(Cl)cc3)nc3ccccc23)c(C(N)=O)c1C | 15.2 µM

Row | SMILES | EC50
51 | O=C(N/N=C/c1ccc(O)c(O)c1)NC12CC3CC(CC(C3)C1)C2 | 14.2 µM
52 | CCOC(=O)C(=Cc1ccc(-n2ccnc2)cc1)C(=O)OCC | > 80 µM (inactive)
53 | CCOC(=O)c1cnc(Nc2nc3ccccc3o2)nc1CSC(=S)N(CC)CC | 4.59 µM
54 | COc1ccc(/C=C/c2nc3cc(-c4ccccc4)ccc3o2)cc1O | > 80 µM (inactive)
55 | CCN1CSC(=S)N(Cc2ccccc2)C1 | > 80 µM (inactive)
56 | CCOC(=O)c1c2ccc(OCC(=O)N/N=C/c3ccc(C)cc3)cc2n2ccccc12 | > 80 µM (inactive)
57 | CC1=CC(C)(C)Nc2ccc(OC(=O)CN3C(=O)C4CCCCC4C3=O)cc21 (configuration not stated) | > 80 µM (inactive)
58 | N#CC12COC3(CCCCC3C1(C#N)C#N)OC2=N (configuration not stated) | > 80 µM (inactive)
59 | Cc1cc(N/N=C/c2ccccc2[N+](=O)[O-])nc(-n2nc(C)cc2C)n1 | > 80 µM (inactive)
60 | CCc1cccc2c(C(=O)CCl)c[nH]c12 | > 80 µM (inactive)
61 | O=C(C#Cc1cccc([N+](=O)[O-])c1)c1ccccc1 | > 80 µM (inactive)
62 | CC1(C)CC(=O)C(=Cc2cn(-c3ccccc3)nc2-c2ccc(Cl)cc2)C(=O)C1 | > 80 µM (inactive)
63 | O=S1(=O)Nc2c(ccc3cccnc23)-c2ccccc21 | > 80 µM (inactive)
64 | CC(C)N1C(=O)/C(=C/C=C/c2ccco2)C(=O)N(Cc2ccco2)C1=O | > 80 µM (inactive)
65 | COc1nc(N)nc(NC(=O)c2cccs2)c1N=O | > 80 µM (inactive)
66 | CC1(C)CC(=O)C(=Cc2cn(-c3ccccc3)nc2-c2ccccc2)C(=O)C1 | > 80 µM (inactive)
67 | CN1C(=O)NC(=O)/C(=C\C=C\c2ccccc2[N+](=O)[O-])C1=O | > 80 µM (inactive)
68 | Cc1cccnc1Nc1nc(-c2ccccn2)cs1 | > 80 µM (inactive)
69 | O=C(N/N=C/c1ccccn1)c1cc([N+](=O)[O-])cc([N+](=O)[O-])c1 | > 80 µM (inactive)
70 | CCOC(=O)/C=c1\s/c(=C\c2ccc3cc(OC)ccc3c2)c(=O)n1CC(=O)NCC1CCCO1 (configuration not stated) | 17.4 µM
71 | Cc1coc2c1C(=O)C(=O)c1c-2ccc2c(C)cccc12 | > 80 µM (inactive)
72 | C=CCn1nc([N+](=O)[O-])nc1Sc1cccc2cccnc12 | > 80 µM (inactive)
73 | Cc1ccc(Sc2ccc(/C=C3/C(=O)NN(c4ccccc4)C3=O)o2)cc1 | > 80 µM (inactive)
74 | O=S(=O)(CCSc1nc2ccccc2s1)c1nc2ccccc2s1 | > 80 µM (inactive)
75 | Cn1nnnc1Sc1ncnc2scc(-c3ccc([N+](=O)[O-])cc3)c12 | > 80 µM (inactive)

Row | SMILES | EC50
76 | Cc1ccc(S(=O)(=O)Nc2cccc3cccnc23)cc1 | > 80 µM (inactive)
77 | Cc1nc([N+](=O)[O-])c(Br)n1CC(=O)c1ccc(Cl)cc1 | > 80 µM (inactive)
78 | Cc1ccc(F)cc1N=Cc1c(O)c2ccccc2oc1=O | > 80 µM (inactive)
79 | Cc1ccc(N2C(=O)NC(=O)/C(=C/c3cnn(-c4ccc(C)cc4)c3)C2=O)cc1 | > 80 µM (inactive)
80 | COc1ccc(C(=O)Sc2ccc(Cl)cc2)cc1OC | > 80 µM (inactive)
81 | Cc1cccc2sc(NC(=O)c3cc(S(=O)(=O)N(C)C)ccc3N3CCCC3)nc12 | 5.3 µM
82 | N=c1c(-c2nc3ccccc3[nH]2)cc(C(=O)c2ccco2)nn1-c1ccccc1 | > 80 µM (inactive)
83 | C/C(=N\NC(=O)c1cc(-c2cccs2)nc2ccccc12)c1ccccn1 | > 80 µM (inactive)
84 | CCCn1c(CC)nc([N+](=O)[O-])c1S(=O)(=O)c1ccccc1 | > 80 µM (inactive)
85 | CCc1nnc(NC(=O)CSc2nc(-c3ccccc3)cc(-c3ccc(OC)cc3)c2C#N)s1 | > 80 µM (inactive)
86 | COc1ccccc1-c1cc(C(F)(F)F)nc(S(C)(=O)=O)n1 | > 80 µM (inactive)
87 | Cc1ccc2nc(-c3ccc(O)c(O)c3)cn2c1 | > 80 µM (inactive)
88 | COC(=O)c1ccc(C(=O)OC)c(NC(=O)CSc2cccc[n+]2[O-])c1 | 9.54 µM
89 | COc1cc(/C=C2\CC(C(C)(C)C)C/C(=C\c3cc(OC)c(OC)c(OC)c3)C2=O)cc(OC)c1OC (configuration not stated) | > 80 µM (inactive)
90 | Cc1cccc(N=Nc2ccc(O)c3ncccc23)c1 | > 80 µM (inactive)
91 | Oc1ccc(/C=N/N2CCN(C3c4ccccc4-c4ccccc43)CC2)cc1O | 18.8 µM
92 | Oc1c(CN2CCc3ccccc3C2)cc(Cl)c2cccnc12 | > 80 µM (inactive)
93 | O=C(N/N=C/c1ccccn1)c1cc(-c2ccccc2)nc2ccccc12 | > 80 µM (inactive)
94 | CCOc1ccc2c(c1)C(=NNC(=O)c1ccncc1)c1cc(OCC)ccc1-2 | > 80 µM (inactive)
95 | CCOc1cc(/C=N/Nc2cc(C)nc(-n3nc(C)cc3C)n2)ccc1O | > 80 µM (inactive)
96 | Cc1cccc(/C=C/C(=O)c2ccc([N+](=O)[O-])o2)c1 | > 80 µM (inactive)
97 | CS(=O)(=O)c1nc(-c2ccccc2)cc(-c2ccccc2)c1C#N | > 80 µM (inactive)
